Reference: US4801534A, “Water soluble zanthylium derivative substrates” (Coulter Electronics, Inc., priority 1987, dated 1989)

Experiments:
Format in all cases: biochemical
Thrombin = biological target: T1, Thrombin (Homo sapiens, UniProt P00734); assay: Thrombin reaction rates, spectrophotometric, change in absorbance at 496 nm; settings: 37° C., 0.10M ACES pH 7.0, 0.05M KCl
T1 construct: Thrombin reaction rates were determined with the water soluble substrate
Description: Identical test conditions were used including temperature 37° C., volume 1.0 ml., and buffer 0.10M ACES pH 7.0, with 0.05M KCl. Since sarcosyl (Sar) and carbobenzyloxy (Cbz) have similar molecular weights, both were tested at 100 ug/ml.

[1] = biological target: T2, Purified human alpha-thrombin (Homo sapiens, UniProt P00734); assay: Spectrophotometric assay of thrombin with (Pyro-Pro-Arg)2-Rhodamine 110; settings: substrate 78 ug/mL, 37° C., pH 8.0
T2 construct: Purified human alpha-thrombin; purchased Dr. John Fenton, N.Y. State Dept. of Health
Description: Dose response curves were determined for three different concentrations of thrombin by measuring absorbance increases at 468 nm and 496 nm. Working thrombin dilutions were prepared as follows: Purified human alpha-thrombin, Dr. John Fenton, N.Y. State Dept. of Health, was diluted to 1.04 U/mL, 0.52 U/mL and 0.25 U/mL in 0.05M HEPES, pH 8.0, with 0.25M NaCl and maintained at 4° C. The substrate, (Pyro-Pro-Arg)2 -Rhodamine 110, was dissolved to 78 ug/mL in 0.20M HEPES, pH 8.0, with 0.3M KCl. Disposable acrylic cuvettes with 1 cm light path, Centaur Sciences, Inc. were used. A one mL aliquot of substrate was pipetted into a cuvette and warmed to 37° C. in a heating block. A one mL sample of a working thrombin dilution was added to the cuvette. After mixing the thrombin and substrate, absorbances at 468 nm and 496 nm were determined for 30 seconds with a Hewlett-Packard Model 8450A spectrophotometer. The increased absorbances over the timed intervals were: […]

coagulation factor VIII = assay: Fluorescent coagulation factor VIII assay based on APTT, substrate detects thrombin generation
Description: (§1) Fluorescent assays for coagulation factors VIII and IX, based on the activated partial thromboplastin time (APTT) assay, were performed with the substrate (Sar-Pro-Arg)2 -Rhodamine 110. The synthetic substrate was used to detect thrombin generation, substituting for the natural substrate fibrinogen present in both human and animal plasmas. Standard calibration curves were constructed with normal plasma, Thromboscreen™ from Curtin Matheson Scientific, which was used to correct factor VIII and IX deficient plasmas, George King Biomedical. The APTT reagent contained purified soybean phospholipids and ellagic acid activator, Dade Diagnostics. […] A Turner model 430 spectrofluorometer with a temperature controlled sample cell holder (37° C.) was used to make the kinetic fluorescent measurements. Excitation and emission wavelengths were set at 468 nm and 525 nm, respectively. Glass test tubes were used to perform the plasma activations and disposable acrylic cuvettes, Centaur Sciences, Inc., were used for the fluorescent measurements.
(§2) A 100 uL aliquot of 0.85% saline or normal plasma diluted in saline was added to a test tube followed by the sequential addition of 100 uL of factor deficient plasma and 100 uL of the APTT reagent. The test tube was incubated in a heating block at 37° C. for 2 minutes, at which time 100 uL of 25 mM CaCl2 was added and the incubation was continued for an additional 30 seconds. The incubation mixture was transferred to a cuvette containing 2.0 mL of the substrate solution prewarmed to 37° C. and the fluorescent rate measured. Linear dose response curves were obtained for factors VIII and IX between 1% and 100% of normal: […]

coagulation factor IX = assay: Fluorescent coagulation factor IX assay based on APTT, substrate detects thrombin generation
Description: as §1, §2

[2] = substrate 80 micromolar, 15% ethanol for the Cbz substrate
[3] = Factor level 1 % normal, plasma dilution 1:250
[4] = Factor level 10 % normal, plasma dilution 1:25
[5] = Factor level 100 % normal, plasma dilution 1:2.5
[6] = Factor level <1 % normal (no plasma dilution), ex 468 nm, em 525 nm, quinine sulfate = 1.0

Row | Absorbance, 0-30 seconds, 468 nm ([1]; Thrombin 0.26 U/mL) | Absorbance, 0-30 seconds, 496 nm ([1]; Thrombin 0.26 U/mL) | Absorbance, 0-30 seconds, 468 nm ([1]; Thrombin 0.52 U/mL) | Absorbance, 0-30 seconds, 496 nm ([1]; Thrombin 0.52 U/mL) | Absorbance, 0-30 seconds, 468 nm ([1]; Thrombin 1.04 U/mL) | Absorbance, 0-30 seconds, 496 nm ([1]; Thrombin 1.04 U/mL) | Substance | Change In Absorbance, 496 nm/Unit Thrombin/mL (Thrombin; [2]) | Change In Absorbance, 496 nm/Unit Thrombin/mL (Thrombin; substrate 800 micromolar) | Relative Fluorescence, Factor VIII (coagulation factor VIII; [3]) | Relative Fluorescence, Factor VIII (coagulation factor VIII; [4]) | Relative Fluorescence, Factor VIII (coagulation factor VIII; [5]) | Relative Fluorescence, Factor VIII (coagulation factor VIII; [6]) | Relative Fluorescence, Factor IX (coagulation factor IX; [3]) | Relative Fluorescence, Factor IX (coagulation factor IX; [4]) | Relative Fluorescence, Factor IX (coagulation factor IX; [5]) | Relative Fluorescence, Factor IX (coagulation factor IX; [6])
1 | – | – | – | – | – | – | (Cbz-L-Pro-Arg)2 -Rhodamine 110 [(Cbz-Pro-Arg)2 -Rhodamine 110, reference compound] | 0.122 | – | – | – | – | – | – | – | – | –
2 | 0.0461 | 0.0462 | 0.0912 | 0.0860 | 0.1766 | 0.1671 | (H-L-Pyro-Pro-Arg)2 -Rhodamine 110 [(Pyro-Pro-Arg)2 -Rhodamine 110] | – | – | – | – | – | – | – | – | – | –
3 | – | – | – | – | – | – | (H-Sar-Pro-Arg)2 -Rhodamine 110 [(Sar-Pro-Arg)2 -Rhodamine 110] | 1.700 | 2.872 | 0.121 | 0.148 | 0.333 | 0.119 | 0.127 | 0.154 | 0.333 | 0.121
